{"source": "patent US20140030260A1", "about": "“METHODS AND COMPOSITIONS TO ELIMINATE CHRONIC LYMPHOCYTIC LEUKEMIA AND OTHER HEMATOLOGIC MALIGNANT CELLS IN STROMAL MICROENVIRONMENT FOR CANCER THERAPY” (BOARD OF REGENTS, THE UNIVERSITY OF TEXAS SYSTEM, priority 2010, published 2014)", "key": {"[1]": {"system": "primary leukemia cells (CLL)", "experiment": "Viability of primary CLL cells cultured alone or with stromal cells, flow cytometry after annexin-V/PI double-staining", "conditions": "for effect on the toxicity of selecticine in CLL cells: patient #17, co-culture with various types of marrow cells, 20 μM selecticine", "description": "The cells were then treated with 50 μM selecticine for 2 days, and cell viability was measured by flow cytometry analysis after double-staining with annexin-V and PI.\nThe cells were then treated with 50 or 100 μM selecticine for 2 days. Cell viability was then measured by flow cytometry analysis after double-staining with annexin-V and PI.\nThe cells were then treated with 50 μM selecticine for 2 days. Cell viability was then measured by flow cytometry analysis after double-staining with annexin-V and PI.\nCell viability was then measured by flow cytometry analysis after double-staining with annexin-V and PI.\nCLL cells isolated from two different patients were treated as follow: (1) Control (CLL alone); (2) Selenocystine mixed with the conditioned medium (CM) of stromal cell culture; (3) Medium from stromal cell culture incubated with selenocystine. After an additional 48-h incubation with CLL cells (without stramal), cell viability was measured by flow cytometry analysis after double-staining with annexin-V and PI.\nCLL cells (without stromal) were then incubated for 72 hours with: (1) control medium; (2) 200 μM 2-mercaptoethanol (2ME) alone; (3) 50 μM selenocystine alone; (4) Selecticine-02 (50 μM selenocystine+200 μM 2-mercaptoethanol pre-mixed overnight). Cell viability was measured by flow cytometry analysis after double-staining with annexin-V and PI.\nThe experimental conditions were the same as FIG. 14, except the selenocystine:2ME ration was 5:2 instead of 1:4.\nThe cells were then treated with 50 mM selenocystine for 2 days."}, "[2]": {"system": "EBV-immortalized normal lymphocytes", "experiment": "Viability of immortalized normal lymphocytes with or without stromal cells, annexin-V/PI flow cytometry", "format": "cell-based", "conditions": "not further specified", "from_the_text": "The numbers indicate % of viable cells."}, "[3]": {"system": "CLL cells", "experiment": "ROS, cellular thiol and glutathione in CLL cells (mitosox Red, CMFDA)", "format": "cell-based, human", "conditions": "in the presence of stromal cells (HS-5); 50 μM", "from_the_text": "Mitochondrial ROS levels were stained by mitosox Red (A) and cellular thiol was stained by CMFDA (B)."}}, "note": "Entries after “also recorded” stand apart in the source; their conditions may differ.", "data": [{"smiles": "NC(C[SeH])C(=O)O", "note": "(stereo not drawn) [selenocysteine, 3-selenyl-2-aminopropanoic acid]", "values": [{"measurement": "toxicity to CLL leukemia cells of the active compound formed by stromal cells", "setting": "[1]; mechanistic studies", "result": "highly toxic"}, {"measurement": "toxicity to normal cells", "setting": "[2]", "result": "low toxicity"}]}, {"smiles": "CC(=O)N[C@@H](CS)C(=O)O", "note": "[NAC, reference compound]", "values": [{"measurement": "effect on the toxicity of selecticine in CLL cells", "setting": "[1]", "result": "protected"}]}, {"smiles": "CCCCS(=N)(=O)CCC(N)C(=O)O", "note": "(stereo not drawn) [BSO, reference compound]", "values": [{"measurement": "effect on the toxicity of selecticine in CLL cells", "setting": "[1]", "result": "enhanced"}]}, {"smiles": "NC(C[Se][Se]CC(N)C(=O)O)C(=O)O", "note": "(stereo not drawn) [selenocystine, 2-amino-3-(2-amino-2-carboxy-ethyl)selanylselanyl-propanoic acid]", "values": [{"measurement": "cytotoxic effect on leukemia (CLL) cells", "setting": "[1]; cultured alone / in the absence of stromal cells", "result": "only moderate cytotoxic effect"}, {"measurement": "killing of primary CLL cells (cell viability)", "setting": "[1]; in the presence of bone marrow stromal cells (HS-5), 50 μM, 2 days", "result": "highly potent cytotoxic effect; also recorded: considerable leukemia cell death"}, {"measurement": "toxicity to CLL cells after conversion by stromal factor in stromal conditioned medium", "setting": "[1]; mixed or incubated with stromal cell culture medium, 48-h incubation with CLL cells without stromal cells", "result": "highly toxic"}, {"measurement": "ROS generation in CLL cells (mitochondrial ROS, mitosox Red)", "setting": "[3]", "result": "significant increase in ROS production"}]}, {"smiles": "Nc1nc(F)nc2c1ncn2[C@@H]1O[C@H](CO)[C@@H](O)[C@@H]1O", "note": "[F-ara-A, reference compound]", "values": [{"measurement": "effect of stromal cells on the drug's cytotoxicity in CLL cells", "setting": "[1]; patient #10, different types of stromal cells, 50 μM selecticine, 20 μM F-ara-A or 20 μM oxaliplatin, 2 days", "result": "protected"}]}]}
